Patent US6825230B2, “Spiro and dispiro 1,2,4-trixolane antimalarials” (Medicines for Malaria Venture MMV, priority 2002, dated 2004)
Converted amounts (≈) assume the structure as drawn. Structures can show the parent of a compound that is named as a salt. Where two headings read alike, the source gives them in different places.

Legend:
[1] = tested on: chloroquine-sensitive NF54 strain of P. falciparum; test: In vitro antimalarial semiautomated microdilution assay ([3H]-hypoxanthine incorporation), NF54 strain; type: cell-based, Plasmodium falciparum; conditions: Plasmodium falciparum
Method: (§1) Various OZ compounds were tested by the semiautomated microdilution assay against intraerythrocytic forms of Plasmodium falciparum derived from asynchronous stock cultures.
(§2) Fifty percent inhibitory concentration (IC50) were estimated by Logit regression analysis.

[2] = tested on: chloroquine-resistant K1 strain of P. falciparum; test: In vitro antimalarial semiautomated microdilution assay ([3H]-hypoxanthine incorporation), K1 strain; type: cell-based, Plasmodium falciparum; conditions: Plasmodium falciparum
Method: as §1, §2

[3] = tested on: ANKA strain of P. berghei; test: Single dose STI in vivo screen in infected mice; parameters: species or system Plasmodium berghei; conditions: for Survival (days) 10 mg/kg po: single 10 mg/kg po in 3% ethanol and 7% Tween 80; for Survival (days) 10 mg/kg po / Survival (days) 10 mg/kg SSV po / Survival (days) 10 mg/kg sc: untreated 6-7 days; for Activity (%) 10 mg/kg po: single 10 mg/kg po in 3% ethanol and 7% Tween 80 on day 1 post-infection; for Survival (days) 10 mg/kg SSV po: single 10 mg/kg po in SSV; for Activity (%) 10 mg/kg SSV po: single 10 mg/kg po in standard suspending vehicle (SSV) on day 1 post-infection; for Survival (days) 10 mg/kg sc: single 10 mg/kg sc in 3% ethanol and 7% Tween 80; for Activity (%) 10 mg/kg sc: single 10 mg/kg sc in 3% ethanol and 7% Tween 80 on day 1 post-infection
Method: In the single dose STI in vivo screen, Moro SPF or NMRI mice infected with the ANKA strain of P. berghei (groups of three mice) were treated on day one post-infection with trioxolanes dissolved or suspended in 3% ethanol and 7% Tween 80. […] SSV consists of 0.5% w/v CMC, 0.5% v/v benzyl alcohol, 0.4% v/v Tween 80, and 0.9% w/v sodium chloride in water. Antimalarial activity was measured by percent reduction in parasitemia on day three post-infection and survival times compared to an untreated control group. Survival to day 30 post-infection is considered to be a cure. […] Other factors influencing antimalarial activity include the stability of carbon radicals formed by β-scission subsequent to the initial electron transfer to the peroxide bond and the influence of steric effects remote from the peroxide bond on the interactions between carbon radicals and potential drug targets.
Moro NMRI male mice (Fu Albino specific pathogen free) weighing 18±2 g were infected intravenously (i.v.) with 2×10^7 P. berghei ANKA strain-infected erythrocytes from donor mice on day 0 of the experiment. From donor mice with circa 30% parasitemia, heparinized blood was taken and diluted in physiological saline to 10^8 parasitized erythrocytes per ml. An aliquot (0.2 ml) of this suspension was injected i.v. into experimental and control groups of mice. […] Throughout the experiments, mice were kept in groups of three or five animals in Makrolon type II cages in an air-conditioned animal room at 22 to 23° C.
They were administered per os (p.o.) in a total volume of 0.01 ml per gram of mouse. The activity of the compound was determined by a variety of methods outlined in subsequent sections. Survival time was also recorded, and survival to day 30 post-infection was considered to be a cure.

[4] = NF54, 72 h, read-out: IC50 (ng/ml) NF54, chloroquine-sensitive NF54 strain, 72 h incubation
[5] = K1, 72 h, read-out: IC50 (ng/ml) K1, chloroquine-resistant K1 strain, 72 h incubation
[6] = percent reduction in parasitemia on day 3
[7] = chloroquine-sensitive NF54 strain, 72 h incubation, read-out: IC50 (ng/ml) NF54
[8] = chloroquine-resistant K1 strain, 72 h incubation, read-out: IC50 (ng/ml) K1

Structure (SMILES)	IC50 [1, 4] [ng/mL]	IC50 [2, 5] [ng/mL]	Survival (days) 10 mg/kg po [3]	Activity (%) 10 mg/kg po [3, 6] [%]	Survival (days) 10 mg/kg SSV po [3]	Activity (%) 10 mg/kg SSV po [3, 6] [%]	Survival (days) 10 mg/kg sc [3]	Activity (%) 10 mg/kg sc [3, 6] [%]	IC50 [1, 7] [ng/mL]	IC50 [2, 8] [ng/mL]	Survival (days) 3 mg/kg SSV po ([3]; single 3 mg/kg po in SSV) [days]	Activity (%) 3 mg/kg SSV po ([3]; single 3 mg/kg po in SSV, percent reduction in parasitemia on day 3) [%]
COCC(=O)N(Cc1ccccc1)C1CCC2(CC1)OOC1(O2)C2CC3CC(C2)CC1C3 (centres unmarked) [OZ173]	32 (≈ 72.5 nM)	58 (≈ 131 nM)	7.0 days	15	6.7 days	0	9.7 days	80	–	–	–	–
O=S(=O)(C[C@H]1CC[C@]2(CC1)OOC1(O2)C2CC3CC(C2)CC1C3)c1ccccc1 (some centres unmarked) [OZ210]	–	–	9.3 days	99.23	8.0 days	77	10.3 days	99.94	1.6 (≈ 3.82 nM)	1.4 (≈ 3.34 nM)	–	–
O=C(NO)[C@H]1CC[C@]2(CC1)OOC1(O2)C2CC3CC(C2)CC1C3 (some centres unmarked) [OZ116]	3.3 (≈ 10.2 nM)	4.2 (≈ 13 nM)	7.7 days	97	8.3 days	96	8.0 days	96	–	–	–	–
O=C(NC[C@H]1CC[C@]2(CC1)OOC1(O2)C2CC3CC(C2)CC1C3)c1cccc[n+]1[O-] (some centres unmarked) [OZ270]	–	–	13.7 days	99.17	12.3 days	99.47	11.3 days	99.81	1.3 (≈ 3.14 nM)	0.85 (≈ 2.05 nM)	–	–
COC(=O)c1ccc(C2(c3ccccc3)OOC3(O2)C2CC4CC(C2)CC3C4)cc1 (centres unmarked) [OZ138, Adamantane-2-spiro-3′-5′-[4′-(methoxycarbonyl)phenyl]-5′-phenyl-1′,2′,4′-trioxolane]	19 (≈ 46.7 nM)	10 (≈ 24.6 nM)	5.7 days	0	6.3 days	5	6.3 days	7	–	–	–	–
COC(=O)c1ncn(C[C@H]2CC[C@]3(CC2)OOC2(O3)C3CC4CC(C3)CC2C4)n1 (some centres unmarked) [OZ234]	3.6 (≈ 8.92 nM)	3 (≈ 7.44 nM)	6.0 days	12	6.0 days	0	6.3 days	0	–	–	–	–
NCC1(c2ccccc2)CCC2(CC1)OOC1(O2)C2CC3CC(C2)CC1C3 (centres unmarked) [OZ117]	1.2 (≈ 3.25 nM)	2.1 (≈ 5.68 nM)	7.0 days	95	7.7 days	96	8.7 days	99.94	–	–	–	–
O=C(O)c1cn(C[C@H]2CC[C@]3(CC2)OOC2(O3)C3CC4CC(C3)CC2C4)cn1 (some centres unmarked) [OZ225]	–	–	5.7 days	0	5.7 days	0	6.3 days	17	> 10	7.3 (≈ 18.8 nM)	–	–
O=C(O)c1ccc(C[C@H]2CC[C@]3(CC2)OOC2(O3)C3CC4CC(C3)CC2C4)cc1 (some centres unmarked) [OZ214]	–	–	6.3 days	44	7.3 days	54	7.7 days	65	> 10	> 10	–	–
CC(C)(C)NC(=O)N1CCC2(CC1)OOC1(O2)C2CC3CC(C2)CC1C3 (centres unmarked) [OZ143, Adamantane-2-spiro-3′-8′-(t-butylaminocarbonyl)-1′,2′,4′-trioxa-8′-azaspiro[4.5]decane]	1.8 (≈ 4.94 nM)	0.98 (≈ 2.69 nM)	6.7 days	48	6.7 days	44	9.7 days	99.85	–	–	–	–
CC(C)(CO)NC(=O)[C@H]1CC[C@]2(CC1)OOC1(O2)C2CC3CC(C2)CC1C3 (some centres unmarked) [OZ129]	> 10	10 (≈ 26.4 nM)	5.3 days	0	5.7 days	4	5.7 days	0	–	–	–	–
N=C(N)NC[C@H]1CC[C@]2(CC1)OOC1(O2)C2CC3CC(C2)CC1C3 (some centres unmarked) [OZ237]	7.1 (≈ 21.2 nM)	5.7 (≈ 17 nM)	6.0 days	5	6.0 days	9	6.7 days	52	–	–	–	–
C1CC1CNC1CCC2(CC1)OOC1(O2)C2CC3CC(C2)CC1C3 (centres unmarked) [OZ184]	1.4 (≈ 4.2 nM)	1 (≈ 3 nM)	6.7 days	54	7.0 days	59	8.7 days	97	–	–	–	–
CCOC(=O)CCC[C@H]1CC[C@]2(CC1)OOC1(O2)C2CC3CC(C2)CC1C3 (some centres unmarked) [OZ260]	–	–	6.7 days	72	7.0 days	51	7.7 days	81	4.3 (≈ 11.4 nM)	5.6 (≈ 14.8 nM)	–	–
O=C(NC[C@H]1CC[C@]2(CC1)OOC1(O2)C2CC3CC(C2)CC1C3)c1c[nH]cn1 (some centres unmarked) [OZ263]	–	–	13.0 days	99.53	13.3 days	99.45	11.0 days	99.92	1.1 (≈ 2.84 nM)	0.84 (≈ 2.17 nM)	–	–
N#Cc1ccc(C2(c3ccccc3)OOC3(O2)C2CC4CC(C2)CC3C4)cc1 (centres unmarked) [OZ124]	–	–	6.3 days	72	5.3 days	17	7.0 days	86	1.7 (≈ 4.55 nM)	2.1 (≈ 5.62 nM)	–	–
Clc1ccc2c(NCCNC3CCC4(CC3)OOC3(O4)C4CC5CC(C4)CC3C5)ccnc2c1 (centres unmarked) [OZ258]	–	–	6.0 days	75	6.0 days	70	10.7 days	99.95	5.2 (≈ 10.7 nM)	5.8 (≈ 12 nM)	–	–
O=CN1CCN(C(=O)C[C@H]2CC[C@]3(CC2)OO[C@]2(O3)C3CC4CC(C3)CC2C4)CC1 [OZ294]	–	–	–	–	8.6 days	99.79	–	–	0.63 (≈ 1.51 nM)	0.39 (≈ 0.932 nM)	7.4	70
N=C(N)N1CCC2(CC1)OOC1(O2)C2CC3CC(C2)CC1C3 (centres unmarked) [OZ191, Adamantane-2-spiro-3′-8′-amidino-1′,2′,4′-trioxa-8′-azaspiro[4.5]decane hydrochloride]	> 10	6	5.7 days	7	5.7 days	5	6.0 days	17	–	–	–	–
O=[N+]([O-])c1ccc(C2(c3ccccc3)OOC3(O2)C2CC4CC(C2)CC3C4)cc1 (centres unmarked) [OZ95, Adamantane-2-spiro-3′-5′-(4′-nitrophenyl)-5′-phenyl-1′,2′,4′-trioxolane]	1.3 (≈ 3.3 nM)	2.8 (≈ 7.12 nM)	6.0/6.0/6.0 days	31	6.0/6.0/6.0 days	0	6.0/6.0/6.0 days	49	–	–	–	–
